{
  "source": "patent US20190350940A1",
  "about": "“PLATINUM COMPOUNDS, COMPOSITIONS, AND USES THEREOF” (priority 2015, published 2019)",
  "key": {"[1]": {"test": "Total plasma and plasma ultrafiltrate platinum pharmacokinetics in mouse", "assay_type": "in vivo", "method": "Nonclinical studies were performed to evaluate the PK of platinum in plasma after IV administration of Compound 8 in the mouse, rat, and dog. The analyses included platinum levels both in total plasma as well as plasma ultrafiltrate.\nCompound 8 was administered in 2 different formulations in mice. The formulation used in pharmacology studies was 5% dimethyl sulfoxide (DMSO)/10% Solutol/Saline, and the formulation used in PK studies was 5 mM citrate pH about 4; this latter formulation is that used in GLP toxicology studies in the rat and is the human clinical formulation."}, "[2]": {"test_system": "A2780 human ovarian cancer", "test": "A2780 ovarian xenograft model", "assay_type": "in vivo, mouse", "settings": "mouse, in vivo, 20 mg/kg", "method": "The effect of Compound 8 on tumor growth inhibition (TGI) was evaluated in the A2780 human ovarian cancer nude mouse (female Crl:NU(NCr)-Foxn1^nu) xenograft model."}, "CYP2C8": {"target": "CYP2C8 (Homo sapiens, UniProt P10632)", "sequence (P10632 whole entry)": "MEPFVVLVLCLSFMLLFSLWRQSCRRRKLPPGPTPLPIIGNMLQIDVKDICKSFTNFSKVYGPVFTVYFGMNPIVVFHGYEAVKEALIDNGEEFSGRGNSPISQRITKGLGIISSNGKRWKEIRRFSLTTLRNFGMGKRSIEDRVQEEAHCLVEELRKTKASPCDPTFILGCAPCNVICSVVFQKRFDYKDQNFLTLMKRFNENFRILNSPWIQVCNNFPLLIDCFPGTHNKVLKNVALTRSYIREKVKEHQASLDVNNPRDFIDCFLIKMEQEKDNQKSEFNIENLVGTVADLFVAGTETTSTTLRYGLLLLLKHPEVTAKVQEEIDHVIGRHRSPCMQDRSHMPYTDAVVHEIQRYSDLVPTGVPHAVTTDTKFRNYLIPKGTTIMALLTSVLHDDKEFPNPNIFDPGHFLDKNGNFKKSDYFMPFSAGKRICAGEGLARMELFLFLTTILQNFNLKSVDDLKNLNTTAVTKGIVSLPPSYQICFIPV", "test": "CYP inhibition, 2C8", "assay_type": "in vitro ADME"}, "[3]": {"test": "Single dose intravenous dose range-finding toxicity study in Beagle dogs (Compound 8-TX-002)", "assay_type": "in vivo, dog", "settings": "both sexes, Beagle, in vivo; single IV dose, dog", "method": "(§1) This study (Compound 8-TX-002) was conducted to evaluate and characterize the acute toxicity and to determine an MTD of Compound 8 when administered once via IV injection to the dog, and to assist in dose selection for a subsequent dog cardiovascular study (Compound 8-TX-005). The test article, Compound 8, was formulated prior to dosing, as a solution in 5 mM citrate buffered saline (0.9% sodium chloride), pH about 4-4.5 at nominal concentrations of 1.2, 2.4, 4.0, and 4.8 mg/mL. Dose formulations were all within the acceptance criteria (+10% of target concentration) ranging from 92.1 to 99.8 percent of target concentration.\n(§2) Groups of 2 animals each (1 male, 1 female) received Compound 8 at doses of 3, 6, 10, or 12 mg/kg. Assessment of toxicity was based on mortality, clinical observations, body weight, and qualitative food assessment; physical examinations; and clinical pathology. Toxicokinetic assessment was conducted for platinum concentration in the plasma and plasma ultrafiltrate."}, "Beagle dogs": {"test_system": "Beagle dogs", "test": "Single dose intravenous dose range-finding toxicity study in Beagle dogs (Compound 8-TX-002)", "assay_type": "in vivo, dog", "method": "as §1, §2"}, "Calu-6 human NSCLC": {"test_system": "Calu-6 human NSCLC", "test": "Calu-6 lung xenograft model", "assay_type": "in vivo, mouse", "settings": "mouse, in vivo", "method": "The effect of Compound 8 was evaluated in the Calu-6 human NSCLC nude mouse (female Crl:NU(NCr)-Foxn1^nu) xenograft model."}, "[4]": {"test": "Temperature effects: mock manufacturing process", "assay_type": "physicochemical", "settings": "after 24 hrs", "method": "In order to determine the effect of both temperature and light on the formation of the two main degradation products, mock manufacturing processes and mock clinical dilution studies were conducted. The mock process was simulated by formulating and holding the Compound 8 drug product at room temperature or under cold conditions (e.g. ice bath) for discreet amounts of time that would simulate the large scale manufacturing process. Once the samples went through the mock manufacturing process, they were stored at −20° C., as a frozen solution, and then thawed as they would be in the clinic prior to administration. For the mock clinical dilution study, each solution was diluted in saline, at the lowest dilution factor expected in the clinic. Then the diluted formulations were stored in syringes at room temperature and then assayed for potency and total impurities (from both procedures) at the end of the day.\nFor the mock manufacturing process, the room temperature samples were formulated and stored at room temperature for a total of 8 hrs and then refrigerated overnight. In contrast, the cold samples were formulated on ice, stored in the 2-8° C. for a total of 8 hrs, and at the end of the day frozen to −20° C."}, "hERG": {"target": "T1, hERG (Homo sapiens, UniProt Q12809)", "T1 construct": "host or cells: membrane preparations", "T1 sequence (Q12809 whole entry)": "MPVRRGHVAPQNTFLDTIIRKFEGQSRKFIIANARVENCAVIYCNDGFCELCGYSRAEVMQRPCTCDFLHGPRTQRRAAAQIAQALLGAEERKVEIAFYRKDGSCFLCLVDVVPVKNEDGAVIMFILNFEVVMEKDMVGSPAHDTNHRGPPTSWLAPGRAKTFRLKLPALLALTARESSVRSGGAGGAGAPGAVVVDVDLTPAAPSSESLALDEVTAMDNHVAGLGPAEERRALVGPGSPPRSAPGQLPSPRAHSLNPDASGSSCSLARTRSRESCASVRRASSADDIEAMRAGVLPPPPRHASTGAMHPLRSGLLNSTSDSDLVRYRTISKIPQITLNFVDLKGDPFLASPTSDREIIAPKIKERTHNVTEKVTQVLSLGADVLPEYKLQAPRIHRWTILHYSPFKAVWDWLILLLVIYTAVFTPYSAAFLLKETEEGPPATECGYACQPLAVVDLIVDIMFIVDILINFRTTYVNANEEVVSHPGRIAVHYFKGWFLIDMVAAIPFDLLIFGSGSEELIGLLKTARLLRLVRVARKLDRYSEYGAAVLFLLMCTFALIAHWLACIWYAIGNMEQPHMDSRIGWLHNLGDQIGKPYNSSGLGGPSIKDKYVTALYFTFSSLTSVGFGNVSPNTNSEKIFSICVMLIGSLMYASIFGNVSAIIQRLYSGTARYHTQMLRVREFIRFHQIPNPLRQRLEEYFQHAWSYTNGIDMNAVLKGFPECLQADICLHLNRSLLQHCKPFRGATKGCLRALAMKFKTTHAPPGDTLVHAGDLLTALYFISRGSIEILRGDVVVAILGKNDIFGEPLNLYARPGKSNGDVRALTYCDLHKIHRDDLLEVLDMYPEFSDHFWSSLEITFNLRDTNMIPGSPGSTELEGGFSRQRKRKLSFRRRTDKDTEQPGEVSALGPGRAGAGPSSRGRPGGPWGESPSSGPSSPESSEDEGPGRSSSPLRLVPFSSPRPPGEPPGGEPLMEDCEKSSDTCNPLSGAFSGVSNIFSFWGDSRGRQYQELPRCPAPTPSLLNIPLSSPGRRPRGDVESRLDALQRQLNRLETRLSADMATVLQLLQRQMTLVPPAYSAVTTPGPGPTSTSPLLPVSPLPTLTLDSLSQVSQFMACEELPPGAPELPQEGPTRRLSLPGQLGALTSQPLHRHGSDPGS", "test": "Binding to membrane preparations of hERG using a radiolabeled antagonist", "method": "An in vitro evaluation of the binding of Compound 8 to membrane preparations of hERG using a radiolabeled antagonist was performed."}, "CYP3A4": {"target": "CYP3A4 (Homo sapiens, UniProt P08684)", "sequence (P08684 whole entry)": "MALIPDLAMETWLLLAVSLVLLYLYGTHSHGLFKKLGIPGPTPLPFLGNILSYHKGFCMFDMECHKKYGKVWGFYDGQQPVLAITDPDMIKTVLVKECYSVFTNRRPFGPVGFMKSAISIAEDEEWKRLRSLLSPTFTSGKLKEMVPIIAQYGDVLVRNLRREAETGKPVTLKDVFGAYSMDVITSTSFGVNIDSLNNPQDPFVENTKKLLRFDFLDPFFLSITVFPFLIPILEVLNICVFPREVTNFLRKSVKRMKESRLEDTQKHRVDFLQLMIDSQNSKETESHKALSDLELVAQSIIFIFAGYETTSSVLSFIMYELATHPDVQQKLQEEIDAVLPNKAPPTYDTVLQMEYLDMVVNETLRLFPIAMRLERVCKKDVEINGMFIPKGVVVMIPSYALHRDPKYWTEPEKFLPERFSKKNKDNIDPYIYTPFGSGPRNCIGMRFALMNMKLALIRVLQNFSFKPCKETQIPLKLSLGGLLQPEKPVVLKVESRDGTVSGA", "test": "CYP inhibition, 3A4", "assay_type": "in vitro ADME"}, "[5]": {"test": "Platinum pharmacokinetics/toxicokinetics in rat", "settings": "in vivo", "method": "Platinum in the plasma ultrafiltrate was considered free drug (non-protein bound), while the platinum in the plasma was a combination of protein bound and free drug.\nGroups of 30 animals (15/sex) each received vehicle control or Compound 8 9, 14, 19, or 6 mg/kg. Groups of 20 animals (10/sex) received Compound 8 9, 14, 19, or 6 mg/kg and 6 animals (3/sex) received vehicle control in the TK portion of the study."}, "[6]": {"test": "pH stability: acidifying agents versus citrate buffered saline", "assay_type": "physicochemical", "settings": "room temperature", "method": "In order to determine whether a buffer would be required to maintain stability, two acidifying agents, hydrochloric acid and citric acid, were evaluated with respect to a control formulation in 5 mM citrate buffered saline. All vehicles were brought to a pH of 4 in saline and each formulation was made at 1 mg/ml concentration in each vehicle."}, "rat plasma": {"test_system": "rat plasma", "test": "In vitro plasma protein binding, rat plasma (Compound 8-DMPK-008)", "assay_type": "in vitro ADME", "settings": "incubation 10 minutes at 37° C."}, "female Beagle dogs": {"test_system": "female Beagle dogs", "test": "Cardiovascular and respiratory effects in Beagle dogs (Compound 8-TX-005)", "assay_type": "in vivo, dog", "method": "The cardiovascular and respiratory effects of Compound 8 administered IV were evaluated in Beagle dogs (Compound 8-TX-005)."}, "CYP2C9": {"target": "CYP2C9 (Homo sapiens, UniProt P11712)", "sequence (P11712 whole entry)": "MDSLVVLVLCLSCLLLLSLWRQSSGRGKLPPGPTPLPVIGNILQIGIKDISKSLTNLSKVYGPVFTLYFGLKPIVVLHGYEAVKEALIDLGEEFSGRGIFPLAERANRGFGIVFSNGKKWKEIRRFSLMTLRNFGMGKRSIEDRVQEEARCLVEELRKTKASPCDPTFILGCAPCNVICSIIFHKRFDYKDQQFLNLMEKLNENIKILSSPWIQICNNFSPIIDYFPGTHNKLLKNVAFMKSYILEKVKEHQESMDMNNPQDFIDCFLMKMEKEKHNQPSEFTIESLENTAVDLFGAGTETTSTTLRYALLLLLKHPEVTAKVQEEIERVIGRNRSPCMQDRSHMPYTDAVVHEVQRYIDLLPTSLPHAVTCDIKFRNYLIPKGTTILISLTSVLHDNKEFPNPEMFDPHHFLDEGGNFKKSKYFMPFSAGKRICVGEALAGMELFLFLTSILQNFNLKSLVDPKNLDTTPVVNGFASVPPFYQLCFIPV", "test": "CYP inhibition, 2C9", "assay_type": "in vitro ADME"}, "CYP2B6": {"target": "CYP2B6 (Homo sapiens, UniProt P20813)", "sequence (P20813 whole entry)": "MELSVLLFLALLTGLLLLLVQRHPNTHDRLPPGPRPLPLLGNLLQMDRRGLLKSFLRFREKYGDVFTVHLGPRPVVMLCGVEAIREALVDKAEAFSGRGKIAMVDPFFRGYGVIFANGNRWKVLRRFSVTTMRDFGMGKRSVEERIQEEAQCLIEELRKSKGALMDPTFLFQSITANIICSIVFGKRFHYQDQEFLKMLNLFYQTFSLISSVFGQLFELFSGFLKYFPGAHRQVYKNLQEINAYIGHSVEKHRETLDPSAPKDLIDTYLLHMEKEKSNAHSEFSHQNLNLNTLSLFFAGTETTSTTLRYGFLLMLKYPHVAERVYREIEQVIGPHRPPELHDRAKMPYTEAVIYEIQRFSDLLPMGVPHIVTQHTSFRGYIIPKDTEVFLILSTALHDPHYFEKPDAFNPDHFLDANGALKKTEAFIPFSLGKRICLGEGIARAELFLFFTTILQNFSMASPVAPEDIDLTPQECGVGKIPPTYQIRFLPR", "test": "CYP inhibition, 2B6", "assay_type": "in vitro ADME"}, "[7]": {"settings": "formulated under cold conditions"}},
  "note": "Values joined by “and” are separate entries in the source; they are usually repeats but may differ in a detail not shown here. Equal values may be shown once. “Also recorded” adds a separate entry of the source.",
  "data": [
    {"smiles": "CC(=O)[O][Pt]([NH2])([NH2])([Cl])([Cl])[O]C(=O)NCCCCCN1C(=O)C=CC1=O", "note": "[Compound 8]", "values": [
      {"measurement": "Dose (MTD)", "setting": "[1]", "value": "41.8 (MTD) mg/m^2"},
      {"measurement": "Mean difference of AUC(0-48h) between the 2 formulations", "setting": "[1]; in vivo", "value": 5, "unit": "%"},
      {"measurement": "Portion of platinum in circulation free in the ultrafiltrate", "setting": "[1]; in vivo", "value": "< 1", "unit": "%"},
      {"measurement": "Ultrafiltrate platinum to total ratio at Cmax", "setting": "[1]; in vivo", "value": 0.06},
      {"measurement": "Ultrafiltrate to total AUC ratio", "setting": "[1]; in vivo", "value": 0.0056},
      {"measurement": "Plasma free platinum AUC", "setting": "[1]; in vivo, iv", "value": 20.6, "unit": "µM·h"},
      {"measurement": "Plasma free platinum Cmax", "setting": "[1]; in vivo, iv", "value": 15.9, "unit": "µM"},
      {"measurement": "Mean maximal BW loss", "setting": "[2]", "value": 7.4, "unit": "%"},
      {"measurement": "IC50", "setting": "CYP2C8", "value": 680, "unit": "nM"},
      {"measurement": "MTD", "setting": "[3]", "value": 10, "unit": "mg/kg"},
      {"measurement": "Decrease in body weight", "setting": "Beagle dogs; 12 mg/kg animals", "value": "exceeded 10%"},
      {"measurement": "Chemistry, coagulation, or urinalysis parameters", "setting": "Beagle dogs; 3, 6, 10, 12 mg/kg", "value": "no definitive effects"},
      {"measurement": "Hematology parameters", "setting": "Beagle dogs; both sexes, all groups (3, 6, 10, 12 mg/kg)", "value": "decreases in reticulocytes, red cell mass, neutrophils and platelets"},
      {"measurement": "MTD", "setting": "Beagle dogs; single IV dose, dog, corresponds to 10 mg/kg", "value": "200 mg/m^2 and 205 (MTD) mg/m^2"},
      {"measurement": "Mortality and treatment-related clinical observations", "setting": "Beagle dogs; up to 12 mg/kg (240 mg/m^2)", "value": "no mortalities or treatment related clinical observations; also recorded: no mortalities"},
      {"measurement": "Mean maximal BW loss", "setting": "Calu-6 human NSCLC; 10 mg/kg", "value": 0.9, "unit": "%"},
      {"measurement": "Mean maximal BW loss", "setting": "Calu-6 human NSCLC; 15 mg/kg", "value": 3.2, "unit": "%"},
      {"measurement": "Formation of Impurity 1", "setting": "[4]; formulated at room temperature", "value": "~0.8", "unit": "%"},
      {"measurement": "Formation of Impurity2", "setting": "[4]; formulated at room temperature", "value": "~0.3", "unit": "%"},
      {"measurement": "Formation of Impurity 1", "setting": "[4]; [7]", "value": "< 0.3", "unit": "%"},
      {"measurement": "Formation of Impurity2", "setting": "[4]; [7]", "value": "~0.1", "unit": "%"},
      {"measurement": "hERG binding finding", "setting": "hERG; 3 uM, conjugated to human serum albumin", "value": "no evidence for significant cardiovascular toxicity"},
      {"measurement": "hERG binding finding", "setting": "hERG; 10 uM, unconjugated to human serum albumin", "value": "no evidence for significant cardiovascular toxicity"},
      {"measurement": "IC50", "setting": "CYP3A4", "value": 1960, "unit": "nM"},
      {"measurement": "Ultrafiltrate levels as share of the total platinum levels", "setting": "[5]; both", "value": "approximately 1%"},
      {"measurement": "RBC platinum concentrations, Day 21 relative to Day 1", "setting": "[5]; 19 mg/kg", "value": "did not result in significant accumulation of platinum in the RBCs"},
      {"measurement": "Impurity 2 formation", "setting": "[6]; 1 mg/ml in 5 mM citrate buffered saline pH 4, 24 hr", "value": "inhibits the formation of Impurity 2"},
      {"measurement": "Impurity 2 formation", "setting": "[6]; 1 mg/ml in saline brought to pH 4 with hydrochloric acid, after 24 hrs", "value": "over 2 % by area"},
      {"measurement": "Protein bound", "setting": "rat plasma", "value": "> 99", "unit": "%"},
      {"measurement": "Increases in blood pressure (slight, non-dose-dependent)", "setting": "female Beagle dogs; 6 and 10 mg/kg, between 6 and 12 hours following treatment", "value": "9-16 % above controls"},
      {"measurement": "Doses with no observable adverse effects on cardiovascular or pulmonary function", "setting": "female Beagle dogs; IV, female Beagle dogs", "value": "≤ 10", "unit": "mg/kg"},
      {"measurement": "Doses with no observable adverse effects on cardiovascular or pulmonary function, as HED", "setting": "female Beagle dogs; IV, female Beagle dogs", "value": "≤ 200", "unit": "mg/m^2"},
      {"measurement": "Test article-related clinical observations", "setting": "female Beagle dogs; all animals, approximately 24 hours post-dose", "value": "observations of vomitus"},
      {"measurement": "Mortality, body temperature, heart rate, ECG parameters (PR, RR, QRS, QT, QTc), respiratory rate", "setting": "female Beagle dogs; single IV injection 6 and 10 mg/kg, female Beagle dogs", "value": "did not produce mortality or changes"},
      {"measurement": "IC50", "setting": "CYP2C9", "value": 950, "unit": "nM"},
      {"measurement": "IC50", "setting": "CYP2B6", "value": 582, "unit": "nM"}
    ]}
  ]
}
